Data as given in ChEMBL document CHEMBL1126135, “N-(1-oxododecyl)-4 alpha,10-dimethyl-8-aza-trans-decal-3 beta-ol: a potent competitive inhibitor of 2,3-oxidosqualene cyclase” (J Med Chem, 1992).

Tests used:
HepG2 = assay: Compound was tested for inhibition of cholesterol biosynthesis in HepG2 cells from [14C]- acetate; format: functional, cell-based; conditions: Homo sapiens
Lanosterol synthase = target: T1, Lanosterol synthase (Rattus norvegicus, UniProt P48450); assay: Inhibitory activity against Oxidosqualene-lanosterol cyclase enzyme obtained from rat liver; d = in a microsomal assay fails to inhibit OSC (Oxidosqualene cyclase); format: microsomes, Microsome
T1 sequence (P48450 whole entry): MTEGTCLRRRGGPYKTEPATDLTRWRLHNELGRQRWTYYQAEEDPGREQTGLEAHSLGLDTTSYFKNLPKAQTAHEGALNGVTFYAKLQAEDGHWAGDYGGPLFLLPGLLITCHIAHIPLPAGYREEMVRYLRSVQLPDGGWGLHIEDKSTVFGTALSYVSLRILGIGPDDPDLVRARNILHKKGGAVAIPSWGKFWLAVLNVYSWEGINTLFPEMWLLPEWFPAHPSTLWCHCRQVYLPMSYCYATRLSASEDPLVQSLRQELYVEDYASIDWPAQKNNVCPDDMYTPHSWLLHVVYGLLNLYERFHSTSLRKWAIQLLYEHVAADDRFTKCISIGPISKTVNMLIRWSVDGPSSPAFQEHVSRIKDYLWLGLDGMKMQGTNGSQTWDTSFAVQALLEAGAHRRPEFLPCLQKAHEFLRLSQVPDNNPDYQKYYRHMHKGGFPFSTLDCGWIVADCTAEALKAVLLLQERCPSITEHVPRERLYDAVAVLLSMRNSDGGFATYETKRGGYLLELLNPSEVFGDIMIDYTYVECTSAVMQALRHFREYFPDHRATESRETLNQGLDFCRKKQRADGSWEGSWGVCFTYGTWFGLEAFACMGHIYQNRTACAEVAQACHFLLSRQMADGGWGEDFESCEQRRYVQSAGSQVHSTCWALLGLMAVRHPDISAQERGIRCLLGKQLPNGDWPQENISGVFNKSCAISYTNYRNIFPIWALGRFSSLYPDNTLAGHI

Row | SMILES | IC50 (HepG2) | IC50 (Lanosterol synthase)
1 | CCCCCCCCCCCC(=S)N1CC[C@H]2[C@H](C)[C@@H](O)CC[C@]2(C)C1 | 2000 nM | –
2 | CCCCCCCCCCCC(=O)N1CC[C@H]2[C@H](C)[C@@H](O)CC[C@]2(C)C1 | 700 nM | –
3 | CC(C)CCCC(C)CCCC(C)N1CC[C@H]2[C@H](C)[C@@H](O)CC[C@]2(C)C1 (stereo not given in full) | 70 nM | –
4 | CC1(C)[C@@H](O)CC[C@]2(C)CCCC[C@@H]12 | 28000 nM | –
5 | CC(=O)N1CC[C@H]2[C@H](C)[C@@H](O)CC[C@]2(C)C1 | > 100000 nM | –
6 | C[C@@H]1[C@@H](O)CC[C@]2(C)CNCC[C@@H]12 | 19000 nM | No inhibition

Now from value to molecule, other results behind:

Row | IC50 (HepG2) | SMILES | IC50 (Lanosterol synthase)
7 | 2800 nM | CCCCCCCCCCCC[S+]([O-])N1CC[C@H]2[C@H](C)[C@@H](O)CC[C@]2(C)C1 (stereo not given in full) | –
8 | 52000 nM | CCCCCCCCCCCCS(=O)(=O)N1CC[C@H]2[C@H](C)[C@@H](O)CC[C@]2(C)C1 | –
9 | 10 nM | CCCCCCCCCCCCN1CC[C@H]2[C@H](C)[C@@H](O)CC[C@]2(C)C1 | –
